Reference: patent publication US20060062736A1, “Therapeutic foam” (priority 2003, published 2006)

Assay: In vitro absorption of foam/gas in fresh human venous blood
Type: in vitro ADME
Settings: 0.5 ml aliquot into 20 ml stirred blood
Procedure: In vitro experiments were conducted to determine the absorption of foam made with different gases in fresh human venous blood.
A 20 ml polypropylene syringe barrel was prepared by puncturing its side wall with a relatively large hypodermic needle to make a hole approximately 1 mm in diameter. This hole was then covered by securing a piece of clear flexible vinyl sheet over it with clear adhesive tape. A small magnetic stirrer element was introduced into the syringe barrel and the plunger then replaced. 20 ml of human venous blood was then with withdrawn in the usual manner from a human subject using the specially prepared syringe fitted with a hypodermic needle.
The hypodermic needle was removed and the syringe then placed on a magnetic stirrer unit so that the magnetic element in the syringe thoroughly agitated the blood. […]
The needle of the 0.5 ml syringe was then introduced through the vinyl sheet on the side wall of the 20 ml syringe. […] It was determined that a distance of 45 intervals on this scale corresponded to an internal volume of in the manometer tubing of approximately 0.5 ml. […]
In this experiment, the air foam test was only observed for a few minutes after tF. However, further experiments have been conducted by the inventors, the results of which are not formally recorded here, involving foam with a percentage of nitrogen. […]

SMILES: O=O [Oxygen gas, oxygen]
- Absorbed volume at tF 0.5(y − z)/(y − x): 0.46 mL
- tF (time at which blood column stopped moving): 140 s
